Experimental data taken from patent US20230049952A1, “METHODS AND COMPOUNDS FOR RESTORING MUTANT P53 FUNCTION” (PMV Pharmaceuticals, Inc., priority 2020, published 2023).

Test system: p53 target genes in MT373 tumors
Assay: MT373 syngeneic sarcoma model: p21, MDM2, GDF15 (MIC-1) mRNA RT-qPCR in tumors
Format: in vivo, mouse
Conditions: for MDM2 mRNA, Fold Change over Vehicle Control / MIC-1 mRNA, Fold Change over Vehicle Control / p21 mRNA, Fold Change over Vehicle Control: MT373 tumors
Method: Purification of RNA: Frozen tumor samples with the required weight were lysed in Buffer RLT with 10 μL/mL of β-mercaptoethanol using a TissueLyser LT. Total RNA was further purified from the lysate using QIAcube with DNase digestion, and RNA concentration was measured with a NanoDrop 2000 Spectrophotometer.
p21, MDM2, GDF15, and GAPDH Gene Expression: Individual gene expression was analyzed by one-step TaqMan-based real-time RT-qPCR. Purified total RNA was diluted to 2.5 ng/μL in DNase- and RNase-free water, and 10 ng was used for each 20 μL RT-qPCR assay using a LightCycler 96. A QuantiTect Probe RT-PCR Kit was used along with a specific primer/probe set as indicated. LAM-MGB labels were used for genes GAPDH, CDKN1a, MDM2, GDL15, and TRP53. The expression of the reference gene (human GAPDH and/or mouse GAPDH as indicated) in the ratio to the vehicle control was calculated using the ΔCt method with normalization to the total RNA input. The expression of a gene of interest relative to the reference gene was calculated using the ΔCt method, and the expression of a gene of interest relative to the reference gene in the ratio to the vehicle control was calculated using the ΔΔCt method.

## CCn1c(C#CCNc2ccccc2)cc2cc(CNC3CCN(C)CC3)ccc21 [Compound 1, 1-Anilino-3-{1-ethyl-5-[(1-methyl-4-piperidylamino)methyl]-1H-indol-2-yl}-2-propyne]
75 mg/kg BIDx1 PO, 8 h
  MDM2 mRNA, Fold Change over Vehicle Control: 6.16 fold
  MIC-1 mRNA, Fold Change over Vehicle Control: 1.74 fold
  p21 mRNA, Fold Change over Vehicle Control: 5.43 fold
75 mg/kg BIDx1 PO, 24 h
  MDM2 mRNA, Fold Change over Vehicle Control: 2.44 fold
  MIC-1 mRNA, Fold Change over Vehicle Control: 1.14 fold
  p21 mRNA, Fold Change over Vehicle Control: 4.04 fold
75 mg/kg BIDx1 PO, 48 h
  MDM2 mRNA, Fold Change over Vehicle Control: 1.12 fold
  MIC-1 mRNA, Fold Change over Vehicle Control: 0.85 fold
  p21 mRNA, Fold Change over Vehicle Control: 1.43 fold
75 mg/kg BIDx1 PO, 72 h
  MDM2 mRNA, Fold Change over Vehicle Control: 1.08 fold
  MIC-1 mRNA, Fold Change over Vehicle Control: 0.65 fold
  p21 mRNA, Fold Change over Vehicle Control: 1.18 fold
75 mg/kg BIDx1 PO, 98 h
  MDM2 mRNA, Fold Change over Vehicle Control: 1.11 fold
  MIC-1 mRNA, Fold Change over Vehicle Control: 1.05 fold
75 mg/kg BIDx1 PO
  p21 mRNA, Fold Change over Vehicle Control: 0.99 fold
75 mg/kg BIDx1 PO, […]
  MDM2 mRNA, Fold Change over Vehicle Control: 0.85 fold
  MIC-1 mRNA, Fold Change over Vehicle Control: 0.88 fold
  p21 mRNA, Fold Change over Vehicle Control: 0.98 fold
75 mg/kg BID×1, 8 h
  MDM2 mRNA increase: 6.2 fold
  p21 mRNA increase: 5.4 fold
75 mg/kg BID×1, 24 h
  MDM2 mRNA increase: 2.4 fold
  p21 mRNA increase: 4.0 fold
150 mg/kg BIDx1 PO, 8 h
  MDM2 mRNA, Fold Change over Vehicle Control: 8.70 fold
  MIC-1 mRNA, Fold Change over Vehicle Control: 3.07 fold
  p21 mRNA, Fold Change over Vehicle Control: 6.73 fold
150 mg/kg BIDx1 PO, 24 h
  MDM2 mRNA, Fold Change over Vehicle Control: 6.88 fold
  MIC-1 mRNA, Fold Change over Vehicle Control: 2.29 fold
  p21 mRNA, Fold Change over Vehicle Control: 9.61 fold
150 mg/kg BIDx1 PO, 48 h
  MDM2 mRNA, Fold Change over Vehicle Control: 1.43 fold
  MIC-1 mRNA, Fold Change over Vehicle Control: 1.14 fold
  p21 mRNA, Fold Change over Vehicle Control: 1.87 fold
150 mg/kg BIDx1 PO, 72 h
  MDM2 mRNA, Fold Change over Vehicle Control: 1.33 fold
  MIC-1 mRNA, Fold Change over Vehicle Control: 0.93 fold
  p21 mRNA, Fold Change over Vehicle Control: 1.33 fold
150 mg/kg BIDx1 PO, 98 h
  MDM2 mRNA, Fold Change over Vehicle Control: 1.12 fold
  MIC-1 mRNA, Fold Change over Vehicle Control: 0.53 fold
150 mg/kg BIDx1 PO
  p21 mRNA, Fold Change over Vehicle Control: 1.01 fold
150 mg/kg BIDx1 PO, […]
  MDM2 mRNA, Fold Change over Vehicle Control: 1.16 fold
  MIC-1 mRNA, Fold Change over Vehicle Control: 1.00 fold
  p21 mRNA, Fold Change over Vehicle Control: 0.85 fold
150 mg/kg BID×1, 8 h
  MDM2 mRNA increase: 8.7 fold
  MIC-1 mRNA increase: 3.07 fold
  p21 mRNA increase: 6.7 fold
150 mg/kg BID×1, 24 h
  MDM2 mRNA increase: 6.9 fold
  MIC-1 mRNA increase: 2.29 fold
  p21 mRNA increase: 9.6 fold
